PMC6272548, “Synthesis and Antiplatelet Activity of Antithrombotic Thiourea Compounds: Biological and Structure-Activity Relationship Studies” (Molecules, 2015)
Like-named read-outs stand apart in the source and are kept apart here.

What was measured:
Salmonella typhimurium = assay: Reverse mutagenesis to histidine prototrophy (Ames test), spot test; details: without metabolic activation; 10 µM, 100 µM and 500 µM
Protocol: This assay was performed as described by Maron and Ames, using the histidine Salmonella typhimurium auxotroph mutant strains TA97, TA98, TA100 and the […] TA102 (Table 5).

human platelets = assay: Platelet aggregation of human citrated platelet-rich plasma induced by arachidonic acid (turbidimetric); type: cell-based; details: for inhibition at 100 µM: healthy human platelets, read-out: Inhibition of AA-induced platelet aggregation; for Antiplatelet activity (in words): AA-induced platelet aggregation
Protocol: The human blood samples were obtained from adult volunteers, who abstained from the use of drugs or other substances that could interfere with the experiment for at least 15 days prior. […] The platelet rich (PRP) and poor (PPP) plasma were prepared by differential centrifugation and platelet aggregation was monitored using the turbidimetric method described by Born and Cross with an aggregometer 4-Pack® (Helena Laboratories, Beaumount, TX, USA). Different concentrations of the synthetic derivatives and the vehicle (DMSO 1%) were pre-incubated for 2 min before addition of the agonists (500 μM arachidonic acid and 5 μg/mL collagen). The platelet aggregation tests were performed in triplicate and the data were statistically analyzed.

PGE2 production = assay: Measurement of plasma PGE2 levels by EIA in platelet-rich plasma; type: cell-based; details: human platelet-rich plasma
Protocol: The stable direct metabolite of PGE2, 13,14-dihydro-15-keto-Prostaglandin E2, is a known marker of the COX-1 activity. By the measurement of total levels of this PGE2 metabolite in human platelet-rich plasma, we evaluated the feasibility of antiplatelet N,N'-disubstituted thioureas to inhibit COX-1 activity in healthy platelets (Table 2).
Plasma samples containing 100 μM of each thiourea with antiplatelet activity were used to determine the concentrations of […], an index of in vitro COX-1 activity. Briefly, ozagrel (3 μL, 100 μM) were added to stop TXS activity and the aggregation were triggered with 10 μL of arachidonic acid (500 μM) in PRP samples containing each active derivative (100 μM) under stir conditions. After five minutes the suspensions were mixed with indomethacin (3 μL, 10 mM) stop-solution. By sonication for 1 min, platelets were disrupted and purification step were performed according to the manufacturer’s instructions (Cayman Chemical Co.). Plasma levels of PGE2 were measured in duplicate by competitive immunoassay using commercially available kits for EIA (PGE2 EIA Kit, Cayman Chemical Co.) according to the manufacturer’s instructions. A threshold of 25.75 ng/mL was defined as control plasma levels of PGE2 after platelet disrupture.

TXB2 production = assay: Measurement of plasma TXB2 levels by EIA in platelet-rich plasma; type: cell-based; details: for inhibition at 100 µM: Homo sapiens, Platelet; for Platelet Inhibition of TXB2 (%): 100 µM, human platelet-rich plasma
Protocol: Thromboxane B2 (TXB2), a stable TXA2 metabolite, is widely used as a prognostic risk marker of platelet activation in cardiovascular disease, which is closely related to COX-1 and Thromboxane Synthetase activity. Thus, the plasma levels of this metabolite were measured using an enzyme immunoassay (EIA) as described in the Experimental Section.
Plasma samples containing 100 μM of each thiourea with antiplatelet activity were used to determine the concentrations of thromboxane B2, an index of in vitro COX-1 activity. Briefly, 10 μL of arachidonic acid (500 μM) were added to platelet-rich plasma samples containing each active derivative (100 μM) under stir conditions. After five minutes the suspensions were mixed with 3 μL Indomethacin (10 mM) stop-solution. By sonication for 15 min, platelets were disrupted, and the resulting homogenates were centrifuged at 2000 g for 10 min to allow complete release of TXB2. Plasma levels of TXB2 were measured in duplicate by competitive immunoassay using commercially available kits from EIA Cayman (TXB2 EIA Kit, Cayman Chemical Co, Ann Arbor, MI, USA) according to the manufacturer’s instructions. A threshold of 25.75 ng/mL was defined as control plasma levels of TXB2 after platelet disrupture.

COX-1 = test system: COX-1; parameters: method as in PMID 22263894; details: read-out: IC50 of non-anionic COX-1 inhibitors; cited from earlier work
erythrocytes = assay: Hemolysis assay (erythrocyte lysis); type: cell-based, human; details: 3 h incubation; derivatives and ASA at 100 μM, TRITON at 1%
Protocol: Healthy erythrocytes were washed three times with PBS (pH 7.4) by centrifugation and suspended in the same buffer. All derivatives were incubated with the erythrocyte suspension for 3 h at 37 °C. The release of hemoglobin was determined by monitoring the optical density of the supernatant at 540 nm. The experiments were performed in triplicate and complete hemolysis (positive control) was determined using 1% Triton X-100. Hemolysis less than 10% indicated good hemocompatibility and non-toxicity of the molecules tested.

[1] = Homo sapiens, Platelet, read-out: IC50, concentration that caused 50% inhibition of platelet aggregation, arachidonic acid-induced (500 μM), human platelet-rich plasma
[2] = read-out: IC50, concentration that caused 50% inhibition of platelet aggregation, arachidonic acid-induced (500 μM), human platelet-rich plasma

Compound	Ames Test S. typhimurium TA97 (Salmonella typhimurium)	Ames Test S. typhimurium TA98 (Salmonella typhimurium)	Ames Test S. typhimurium TA100 (Salmonella typhimurium)	Ames Test S. typhimurium TA102 (Salmonella typhimurium)	IC50 (human platelets; [1])	melting point	inhibition at 100 µM (PGE2 production)	inhibition at 100 µM (human platelets; Platelet)	inhibition at 100 µM (TXB2 production)	Antiplatelet activity (in words) (human platelets)	IC50 (human platelets; [2])	Platelet Inhibition of TXB2 (%) (TXB2 production)	IC50 (COX-1)	Hemolysis (erythrocytes)
CNC(=S)Nc1ccccc1 [3a, N-Methyl-N'-phenylthiourea]	-	-	-	-	308 ± 10.4 µM									
S=C(Nc1ccccc1)NC1CCCCC1 [3b, N-Cyclohexyl-N'-phenylthiourea]	-	-	-	-	153 ± 4.5 µM	149 to 151 °C								
OCCNC(=S)Nc1ccccc1 [3c, N-(2-Hydroxyethyl)-N'-phenylthiourea]	-	-	-	-	170 ± 17.3 µM	139 to 141 °C								
CCN(CC)C(=S)Nc1ccccc1 [3d, N-N-Diethyl-N'-phenylthiourea]	-	-	-	-	29.1 µM		25.6 ± 5.9%	96 to 98%	74.2 ± 10.2%					
COc1cc(NC(=S)Nc2ccccc2)cc(OC)c1OC [3e, N-Phenyl-N'-(3,4,5-trimethoxyphenyl)thiourea]	-	-	-	-	251 ± 3.5 µM	164 to 166 °C				lack antiplatelet activity				
S=C(Nc1ccccc1)Nc1ccc2c(c1)OCO2 [3f, N-3,4-Methylenedioxyphenyl-N'-phenylthiourea]	-	-	-	-	322 ± 8.9 µM	140 to 142 °C				lack antiplatelet activity				
S=C(Nc1ccccc1)Nc1cccc2ccccc12 [3g, N-α-Naphthyl-N'-phenylthiourea]	-	-	-	-							142 ± 9 µM			
CC(C)NC(=S)NCc1ccccc1 [3h, N-Benzyl-N'-isopropylthiourea]	-	-	-	-	214 ± 10.2 µM	121 to 123 °C								
CCN(CC)C(=S)NCc1ccccc1 [3i, N-Benzyl-N',N'-diethylthiourea]	-	-	-	-			21.1 ± 5%	96 to 98%	74.7 ± 5.5%		86.2 µM			
S=C(NCc1ccccc1)Nc1ccc2c(c1)OCO2 [3j, N-Benzyl-N'-(3,4-methylenedioxyphenyl)thiourea]	-	-	-	-	155 ± 3.6 µM	114 to 116 °C								
CC(C)NC(=S)NCCc1ccccc1 [3k, N-Isopropyl-N'-(2-phenethyl)thiourea]	-	-	-	-	188 ± 10.7 µM	126 to 128 °C								
CCCCNC(=S)NCCc1ccccc1 [3l, N-Butyl-N'-(2-phenethyl)thiourea]	-	-	-	-	153 ± 15 µM	61 to 63 °C								
CCN(CC)C(S)=NCCc1ccccc1 [3m, N,N-diethyl-N'-(2-phenethyl)thiourea]	-	-	-	-	34.5 µM	72 to 74 °C	28.2 ± 5.9%	96 to 98%	91%		34.5 ± 0.9 µM	91.2 ± 0.0%		
S=C(NCCc1ccccc1)NC1CCCCC1 [3n, N-Cyclohexyl-N'-(2-phenethyl)thiourea]	-	-	-	-	277 ± 42.9 µM	109 to 111 °C								
S=C(NCCc1ccccc1)Nc1cccc2ccccc12 [3o, N-(α-Naphthyl)-N'-(2-phenethyl)thiourea]	-	-	-	-	157 ± 19.9 µM	155 to 157 °C								
S=C(NCCc1ccccc1)Nc1ccc2c(c1)OCO2 [3p, N-(3,4-Methylenedioxyphenyl)-N'-(2-phenethyl)thiourea]	-	-	-	-	84.6 µM	126 to 128 °C	7.9 ± 7.9%	96 to 98%	88%		84.5 µM	88.1 ± 5.5%		
COc1cc(NC(=S)Nc2ccc3c(c2)OCO3)cc(OC)c1OC [3q, N-(3,4-Methylenedioxyphenyl)-N'-(3,4,5-trimethoxyphenyl)thiourea]	-	-	-	-	290 ± 21.9 µM	142 to 144 °C				lack antiplatelet activity				
COc1ccc2c(c1)c(CC(=O)O)c(C)n2C(=O)c1ccc(Cl)cc1 [Indomethacin, reference compound]							28 ± 1.6%		99.8%					
O=C(O)/C=C/c1ccc(Cn2ccnc2)cc1 [Ozagrel, reference compound]									98 ± 2.8%					
Nc1ccc(NC(=O)c2ccc(C(F)(F)F)cc2)nc1 [TFAP]													0.8 µM	
Triton X-100														100%
